In brackets after ≈: the same amount, converted by molar mass. Activity calls are given as the source filed them. The rule behind the calls is not given here. Bounds are passed on as bounds.

The subject of test [1] is Mycobacterium tuberculosis. Put plainly: Antitubercular activity against Mycobacterium tuberculosis H37Rv ATCC 27294 assessed as inhibition of bacterial growth incubated for 7 days by Presto blue resazurin microtiter plate assay. It is filed as functional. As to conditions: H37Rv ATCC 27294, 168 h, time 7 day.
Another test concerns Staphylococcus aureus. Kind of test: Antibacterial activity against Staphylococcus aureus ATCC 29213 assessed as inhibition of bacterial growth incubated for 16 to 18 hrs by CLSI based microdilution method. Type of test: functional. As to conditions: time 16-18 hrs.
In test [2] the test system is Mycobacterium tuberculosis. Kind of test: Bactericidal activity against Mycobacterium tuberculosis H37Rv ATCC 27294 assessed as reduction in colony formation at 1 to 10 times of MIC incubated for 6 to 7 days by time-kill assay. As to conditions: time 6-7 day. It is filed as functional, organism-based.

Consider `O=c1nc(SCc2cn(-c3cccc(F)c3)nn2)sc2c([N+](=O)[O-])cc(Cl)cc12`, for which the MIC in test [1] is 8 µg/mL (≈ 17.8 µM); in the test with Staphylococcus aureus, at least 64 µg/mL.

Take `CC(C)Oc1cccc(-n2cc(CSc3nc(=O)c4cc(Cl)cc([N+](=O)[O-])c4s3)nn2)c1`: the MIC in test [1] was 64 µg/mL (≈ 131 µM); in the test with Staphylococcus aureus, at least 64 µg/mL.

On to `CC(=O)c1cccc(-n2cc(CSc3nc(=O)c4cc(Cl)cc([N+](=O)[O-])c4s3)nn2)c1`, for which the MIC in test [1] is 32 µg/mL (≈ 67.5 µM); with Staphylococcus aureus, at least 64 µg/mL.

Turning to `COc1cc(OC)cc(-n2cc(CSc3nc(=O)c4cc(Cl)cc([N+](=O)[O-])c4s3)nn2)c1`, the minimum inhibitory concentration (MIC) in test [1] is over 64 µg/mL; in the test with Staphylococcus aureus it was at least 64 µg/mL.

For the compound `NS(=O)(=O)c1ccc(-n2cc(CSc3nc(=O)c4cc(Cl)cc([N+](=O)[O-])c4s3)nn2)cc1`, the values for the MIC (in test [1]; in the test with Staphylococcus aureus) were over 64 µg/mL and at least 64 µg/mL, respectively.

Regarding `O=c1nc(SCc2cn(-c3ccc(F)c(F)c3)nn2)sc2c([N+](=O)[O-])cc(Cl)cc12`, the MIC was 8 µg/mL (≈ 17.1 µM) in test [1] and at least 64 µg/mL in the test with Staphylococcus aureus.

Consider `O=c1nc(SCc2cn(-c3ccccc3)nn2)sc2c([N+](=O)[O-])cc(Cl)cc12`, for which the MIC is 32 µg/mL (≈ 74.1 µM) in test [1] and at least 64 µg/mL in the test on Staphylococcus aureus.

Regarding `O=C(O)c1cccc(-n2cc(CSc3nc(=O)c4cc(Cl)cc([N+](=O)[O-])c4s3)nn2)c1`, the MIC in test [1] was over 64 µg/mL; in the test with Staphylococcus aureus, at least 64 µg/mL.

Regarding `NS(=O)(=O)c1cccc(-n2cc(CSc3nc(=O)c4cc(Cl)cc([N+](=O)[O-])c4s3)nn2)c1`, the results for the MIC (in test [1]; with Staphylococcus aureus) were over 64 µg/mL and at least 64 µg/mL, respectively.

In the case of `CCCCCCOc1ccc(-n2cc(CSc3nc(=O)c4cc(Cl)cc([N+](=O)[O-])c4s3)nn2)cc1`, the results for the MIC (in test [1]; with Staphylococcus aureus) were 8 µg/mL (≈ 15 µM) and at least 64 µg/mL, respectively.

Regarding `COc1ccc(-n2cc(CSc3nc(=O)c4cc(Cl)cc([N+](=O)[O-])c4s3)nn2)cc1OC`, the MIC in test [1] is 32 µg/mL (≈ 65 µM); with Staphylococcus aureus it was at least 64 µg/mL.

With `Cc1cccc(-n2cc(CSc3nc(=O)c4cc(Cl)cc([N+](=O)[O-])c4s3)nn2)c1`, the MIC is 8 µg/mL (≈ 17.9 µM) in test [1] and at least 64 µg/mL in the test on Staphylococcus aureus.

Take `O=c1nc(SCc2cn(-c3ccccc3F)nn2)sc2c([N+](=O)[O-])cc(Cl)cc12`: the MIC in test [1] was 16 µg/mL (≈ 35.6 µM); in the test on Staphylococcus aureus, at least 64 µg/mL.

With `CN[C@@H]1[C@H](O[C@H]2[C@H](O[C@H]3[C@H](O)[C@@H](O)[C@H](N=C(N)N)[C@@H](O)[C@@H]3N=C(N)N)O[C@@H](C)[C@]2(O)C=O)O[C@@H](CO)[C@H](O)[C@H]1O` [STREPTOMYCIN], the MIC in test [1] worked out at 1 µg/mL (≈ 1.72 µM).

On to `O=c1nc(SCc2cn(-c3ccc(N4CCCCC4)c(F)c3)nn2)sc2c([N+](=O)[O-])cc(Cl)cc12`, for which the MIC was 64 µg/mL (≈ 120 µM) in test [1] and at least 64 µg/mL in the test on Staphylococcus aureus.

With `O=c1nc(SCc2cn(-c3ccccc3Cl)nn2)sc2c([N+](=O)[O-])cc(Cl)cc12`, the MIC in test [1] is 32 µg/mL (≈ 68.6 µM); in the test with Staphylococcus aureus, at least 64 µg/mL.

As to `O=c1nc(SCc2cn(-c3ccc(N4CCCCC4)cc3)nn2)sc2c([N+](=O)[O-])cc(Cl)cc12`, the MIC in test [1] was 64 µg/mL (≈ 124 µM); in the test with Staphylococcus aureus, at least 64 µg/mL.

`N#Cc1cccc(-n2cc(CSc3nc(=O)c4cc(Cl)cc([N+](=O)[O-])c4s3)nn2)c1`: the figures for the MIC (in test [1]; with Staphylococcus aureus) were 64 µg/mL (≈ 140 µM) and at least 64 µg/mL, respectively.

For the compound `O=c1nc(SCc2cn(-c3ccc(O)cc3)nn2)sc2c([N+](=O)[O-])cc(Cl)cc12`, the results for the MIC (in test [1]; with Staphylococcus aureus) were 64 µg/mL (≈ 143 µM) and at least 64 µg/mL, respectively.

On to `O=c1nc(SCc2cn(-c3cccnc3)nn2)sc2c([N+](=O)[O-])cc(Cl)cc12`, for which the MIC was 32 µg/mL (≈ 73.9 µM) in test [1] and at least 64 µg/mL in the test on Staphylococcus aureus.

Consider `CC[C@@H](CO)NCCN[C@@H](CC)CO` [ETHAMBUTOL], for which the MIC in test [1] was found to be 1 µg/mL (≈ 4.89 µM).

`COc1cc(-n2cc(CSc3nc(=O)c4cc(Cl)cc([N+](=O)[O-])c4s3)nn2)cc(OC)c1OC`: the MIC was 64 µg/mL (≈ 123 µM) in test [1] and at least 64 µg/mL with Staphylococcus aureus.

Regarding `O=c1nc(SCc2cn(-c3ccc(F)cc3)nn2)sc2c([N+](=O)[O-])cc(Cl)cc12`, the MIC in test [1] is 8 µg/mL (≈ 17.8 µM); in the test with Staphylococcus aureus it was at least 64 µg/mL.

Consider `O=c1ccc2cc(-n3cc(CSc4nc(=O)c5cc(Cl)cc([N+](=O)[O-])c5s4)nn3)ccc2o1`, for which the minimum inhibitory concentration (MIC) in test [1] was 32 µg/mL (≈ 64 µM); with Staphylococcus aureus, at least 64 µg/mL.

Regarding `O=c1nc(SCc2cn(-c3cccc([N+](=O)[O-])c3)nn2)sc2c([N+](=O)[O-])cc(Cl)cc12`, the MIC is 32 µg/mL (≈ 67.1 µM) in test [1] and at least 64 µg/mL in the test on Staphylococcus aureus.

Consider `O=c1nc(SCc2cn(-c3ccc(N4CCOCC4)c(F)c3)nn2)sc2c([N+](=O)[O-])cc(Cl)cc12`, for which the MIC in test [1] was 64 µg/mL (≈ 120 µM); in the test with Staphylococcus aureus, at least 64 µg/mL.

For the compound `COc1ccc(-n2cc(CSc3nc(=O)c4cc(Cl)cc([N+](=O)[O-])c4s3)nn2)cc1`, the MIC in test [1] was 32 µg/mL (≈ 69.3 µM); with Staphylococcus aureus, at least 64 µg/mL.

As for `NNC(=O)c1ccncc1` [ISONIAZID], in test [1], the MIC was found to be 0.03 µg/mL (≈ 0.219 µM).

For the compound `O=C(O)c1ccc(-n2cc(CSc3nc(=O)c4cc(Cl)cc([N+](=O)[O-])c4s3)nn2)cc1`, the MIC was over 64 µg/mL in test [1] and at least 64 µg/mL with Staphylococcus aureus.

Consider `O=c1nc(SCc2cn(-c3ccc(Oc4ccccc4)cc3)nn2)sc2c([N+](=O)[O-])cc(Cl)cc12`, for which the MIC in test [1] was 32 µg/mL (≈ 61.1 µM); in the test with Staphylococcus aureus it was at least 64 µg/mL.

With `Cc1ccc(-n2cc(CSc3nc(=O)c4cc(Cl)cc([N+](=O)[O-])c4s3)nn2)cc1`, the MIC was 8 µg/mL (≈ 17.9 µM) in test [1] and at least 64 µg/mL with Staphylococcus aureus.

For `O=c1nc(SCc2cn(-c3ccc(F)c(Cl)c3)nn2)sc2c([N+](=O)[O-])cc(Cl)cc12`, the MIC in test [1] is 8 µg/mL (≈ 16.5 µM); in the test on Staphylococcus aureus, at least 64 µg/mL.

For `CO[C@H]1/C=C/O[C@@]2(C)Oc3c(C)c(O)c4c(O)c(c(/C=N/N5CCN(C)CC5)c(O)c4c3C2=O)NC(=O)/C(C)=C\C=C\[C@H](C)[C@H](O)[C@@H](C)[C@@H](O)[C@@H](C)[C@H](OC(C)=O)[C@@H]1C` [RIFAMPIN], the MIC in test [1] came to 0.06 µg/mL (≈ 0.0729 µM). In addition, the result in test [2] was Active.

As to `O=c1nc(SCc2cn(-c3cccc(Cl)c3)nn2)sc2c([N+](=O)[O-])cc(Cl)cc12`, the MIC in test [1] was 16 µg/mL (≈ 34.3 µM); in the test with Staphylococcus aureus, at least 64 µg/mL.

`O=c1nc(SCc2cn(-c3ccc([N+](=O)[O-])cc3)nn2)sc2c([N+](=O)[O-])cc(Cl)cc12`: the values for the MIC (in test [1]; with Staphylococcus aureus) were 16 µg/mL (≈ 33.6 µM) and at least 64 µg/mL, respectively.

Take `O=c1nc(SCc2cn(-c3cccc(C(F)(F)F)c3)nn2)sc2c([N+](=O)[O-])cc(Cl)cc12`: the minimal inhibitory concentration (MIC) in test [1] is 8 µg/mL (≈ 16 µM); in the test with Staphylococcus aureus, at least 64 µg/mL.

As to `O=c1nc(SCc2cn(-c3ccc(Br)cc3)nn2)sc2c([N+](=O)[O-])cc(Cl)cc12`, the MIC was 4 µg/mL (≈ 7.83 µM) in test [1] and at least 64 µg/mL in the test on Staphylococcus aureus.

In the case of `O=C(O)c1ccc(-n2cc(CSc3nc(=O)c4cc(Cl)cc([N+](=O)[O-])c4s3)nn2)cc1O`, the MIC in test [1] was over 64 µg/mL; in the test with Staphylococcus aureus, at least 64 µg/mL.

Regarding `Cc1ccc(-n2cc(CSc3nc(=O)c4cc(Cl)cc([N+](=O)[O-])c4s3)nn2)c(C)c1`, the MIC in test [1] is 32 µg/mL (≈ 69.6 µM); with Staphylococcus aureus it was at least 64 µg/mL.

For the compound `O=c1nc(SCc2cn(-c3ccc4ccccc4c3)nn2)sc2c([N+](=O)[O-])cc(Cl)cc12`, the MIC was 64 µg/mL (≈ 133 µM) in test [1] and at least 64 µg/mL with Staphylococcus aureus.

The values above are taken from ChEMBL document CHEMBL5107972 (RSC Med Chem, 2022).
